Measured values: ChEMBL document CHEMBL1201862, “PubChem BioAssay data set” (2004)
One block for each compound: values may come before it. The source made the active and inactive calls.

Columns and labels:
[1] = molecular target: Glyceraldehyde-3-phosphate dehydrogenase (Homo sapiens, UniProt P04406)
[2] = molecular target: Glutathione-S-transferase (Schistosoma japonicum, UniProt Q26513); test: biotin-GST/anti-GST TR-FRET signal inhibitors, dose response, artefact control for Vif-APOBEC3G degradation inhibitor project, biochemical (AID 1117362); format: functional
[3] = molecular target: T1, Sentrin-specific protease 6 (Homo sapiens, UniProt Q9GZR1); test: SAR Analysis of small molecule inhibitors of Sentrin-specific protease 6 (SENP6) using a Luminescent assay. [Related pubchem assays (depositor defined):AID2582, AID2599]; format: functional
T1 sequence (Q9GZR1 whole entry): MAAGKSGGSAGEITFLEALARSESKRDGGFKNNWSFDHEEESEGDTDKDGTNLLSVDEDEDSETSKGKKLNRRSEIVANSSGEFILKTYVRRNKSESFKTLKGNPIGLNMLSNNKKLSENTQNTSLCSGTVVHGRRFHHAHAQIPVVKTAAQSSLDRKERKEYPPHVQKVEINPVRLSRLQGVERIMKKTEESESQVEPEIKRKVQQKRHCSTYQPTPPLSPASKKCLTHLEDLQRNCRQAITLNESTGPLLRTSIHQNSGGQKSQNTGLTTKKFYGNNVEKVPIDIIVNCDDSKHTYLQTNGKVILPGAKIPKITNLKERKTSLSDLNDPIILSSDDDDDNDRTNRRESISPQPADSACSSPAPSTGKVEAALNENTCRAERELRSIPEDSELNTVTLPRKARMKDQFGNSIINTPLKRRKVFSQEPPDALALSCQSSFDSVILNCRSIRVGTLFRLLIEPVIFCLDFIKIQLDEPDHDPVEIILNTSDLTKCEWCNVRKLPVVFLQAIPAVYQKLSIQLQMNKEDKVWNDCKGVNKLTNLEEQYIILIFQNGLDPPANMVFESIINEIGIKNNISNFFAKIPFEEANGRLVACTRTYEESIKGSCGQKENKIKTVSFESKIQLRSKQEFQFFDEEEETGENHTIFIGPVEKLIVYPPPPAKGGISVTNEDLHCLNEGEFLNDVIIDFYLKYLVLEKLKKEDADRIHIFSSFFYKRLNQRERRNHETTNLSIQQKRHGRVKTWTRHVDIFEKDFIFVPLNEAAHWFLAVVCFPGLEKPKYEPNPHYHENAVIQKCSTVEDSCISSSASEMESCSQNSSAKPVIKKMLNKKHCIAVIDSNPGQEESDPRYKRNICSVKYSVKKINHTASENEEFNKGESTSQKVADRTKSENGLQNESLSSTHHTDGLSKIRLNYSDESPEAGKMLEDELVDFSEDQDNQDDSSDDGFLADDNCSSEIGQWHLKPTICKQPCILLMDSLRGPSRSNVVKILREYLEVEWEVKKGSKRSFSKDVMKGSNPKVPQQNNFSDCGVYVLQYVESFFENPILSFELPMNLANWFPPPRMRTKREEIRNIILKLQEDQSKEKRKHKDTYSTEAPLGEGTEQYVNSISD

[4] = molecular target: Heat shock protein HSP 90-alpha (Homo sapiens, UniProt P07900); format: functional, organism-based
[5] = Luminescence Cell-Based Dose Retest to Confirm Inhibitors of Cancer Stem Cells. [Related pubchem assays (depositor defined):AID2717, AID2721]; format: functional, Homo sapiens; settings: Homo sapiens
[6] = molecular target: MAP kinase-interacting serine/threonine-protein kinase 2 (Homo sapiens, UniProt Q9HBH9); format: functional
[7] = molecular target: Serine/threonine-protein kinase PLK3 (Homo sapiens, UniProt Q9H4B4); format: functional
[8] = molecular target: Casein kinase I isoform alpha (Homo sapiens, UniProt P48729); format: functional
[9] = molecular target: Testis-specific serine/threonine-protein kinase 2 (Homo sapiens, UniProt Q96PF2); format: functional;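 also: part of the Navigating the Kinome panel, target entry STK22B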
[10] = molecular target: Calcium/calmodulin-dependent protein kinase type II subunit gamma (Homo sapiens, UniProt Q13555); format: functional
[11] = molecular target: Serine/threonine-protein kinase DCLK1 (Homo sapiens, UniProt O15075); format: functional;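 also: affinity for DCLK1 (listed as DCAMKL1) measured as one member of a kinome-wide kinase profiling panel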
[12] = molecular target: Interleukin-1 receptor-associated kinase 4 (Homo sapiens, UniProt Q9NWZ3); format: functional
[13] = molecular target: Hepatocyte growth factor receptor (Homo sapiens, UniProt P08581); format: functional;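 also: kinase panel profiling across the kinome, with MET as the panel member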
[14] = molecular target: Tyrosine-protein kinase Lck (Homo sapiens, UniProt P06239); format: functional;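 also: lck was assayed as one member of a kinase panel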
[15] = molecular target: Protein-tyrosine kinase 2-beta (Homo sapiens, UniProt Q14289); format: functional
[16] = molecular target: Proto-oncogene tyrosine-protein kinase Src (Homo sapiens, UniProt P12931); format: functional;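 also: SRC entry within a kinome-wide kinase profiling panel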
[17] = molecular target: cAMP-dependent protein kinase catalytic subunit PRKX (Homo sapiens, UniProt P51817); format: functional
[18] = molecular target: Serine/threonine-protein kinase N2 (Homo sapiens, UniProt Q16513); format: functional
Ephrin type-A receptor 2 = Ephrin type-A receptor 2 (Homo sapiens, UniProt P29317); format: functional;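 also: EPHA2 tested as one member of a kinome-wide kinase panel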
[19] = molecular target: Ribosomal protein S6 kinase alpha-5 (Homo sapiens, UniProt O75582); format: functional
[20] = molecular target: Cyclin-dependent kinase 5 (Homo sapiens, UniProt Q00535); format: functional;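 also: CDK5 measured as one member of a kinase profiling panel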
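For EC50 in this document: HEK293 cells transfected with hcDAF12 and a DAF12 luciferase reporter; potency of agonists activating the hcDAF12 luciferase reporter.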

Chain of Calcium/calmodulin-dependent protein kinase type II subunit gamma (Q13555 whole entry): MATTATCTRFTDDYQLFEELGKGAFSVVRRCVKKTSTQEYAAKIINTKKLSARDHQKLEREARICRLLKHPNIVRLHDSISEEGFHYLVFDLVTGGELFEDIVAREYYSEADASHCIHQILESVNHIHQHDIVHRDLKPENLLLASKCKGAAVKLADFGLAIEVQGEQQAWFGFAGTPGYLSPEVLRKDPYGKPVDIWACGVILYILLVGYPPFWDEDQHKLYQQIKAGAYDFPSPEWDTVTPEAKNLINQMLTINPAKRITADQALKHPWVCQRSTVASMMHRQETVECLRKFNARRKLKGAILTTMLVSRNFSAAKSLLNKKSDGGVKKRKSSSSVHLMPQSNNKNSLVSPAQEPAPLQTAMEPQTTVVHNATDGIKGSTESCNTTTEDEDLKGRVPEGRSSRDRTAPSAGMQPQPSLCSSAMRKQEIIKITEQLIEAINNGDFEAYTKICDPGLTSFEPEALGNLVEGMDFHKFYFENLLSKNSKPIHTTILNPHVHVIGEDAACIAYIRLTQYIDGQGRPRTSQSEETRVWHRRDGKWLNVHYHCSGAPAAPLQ
Chain of Cyclin-dependent kinase 5 (Q00535 whole entry): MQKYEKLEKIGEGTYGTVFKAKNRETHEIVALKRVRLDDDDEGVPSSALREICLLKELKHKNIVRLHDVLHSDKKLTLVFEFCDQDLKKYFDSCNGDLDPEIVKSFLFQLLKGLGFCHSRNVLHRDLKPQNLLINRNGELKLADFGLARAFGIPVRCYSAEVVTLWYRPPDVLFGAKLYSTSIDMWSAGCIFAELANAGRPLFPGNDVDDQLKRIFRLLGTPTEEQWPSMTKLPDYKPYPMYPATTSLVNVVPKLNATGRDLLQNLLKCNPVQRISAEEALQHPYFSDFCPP
Chain of Ribosomal protein S6 kinase alpha-5 (O75582 whole entry): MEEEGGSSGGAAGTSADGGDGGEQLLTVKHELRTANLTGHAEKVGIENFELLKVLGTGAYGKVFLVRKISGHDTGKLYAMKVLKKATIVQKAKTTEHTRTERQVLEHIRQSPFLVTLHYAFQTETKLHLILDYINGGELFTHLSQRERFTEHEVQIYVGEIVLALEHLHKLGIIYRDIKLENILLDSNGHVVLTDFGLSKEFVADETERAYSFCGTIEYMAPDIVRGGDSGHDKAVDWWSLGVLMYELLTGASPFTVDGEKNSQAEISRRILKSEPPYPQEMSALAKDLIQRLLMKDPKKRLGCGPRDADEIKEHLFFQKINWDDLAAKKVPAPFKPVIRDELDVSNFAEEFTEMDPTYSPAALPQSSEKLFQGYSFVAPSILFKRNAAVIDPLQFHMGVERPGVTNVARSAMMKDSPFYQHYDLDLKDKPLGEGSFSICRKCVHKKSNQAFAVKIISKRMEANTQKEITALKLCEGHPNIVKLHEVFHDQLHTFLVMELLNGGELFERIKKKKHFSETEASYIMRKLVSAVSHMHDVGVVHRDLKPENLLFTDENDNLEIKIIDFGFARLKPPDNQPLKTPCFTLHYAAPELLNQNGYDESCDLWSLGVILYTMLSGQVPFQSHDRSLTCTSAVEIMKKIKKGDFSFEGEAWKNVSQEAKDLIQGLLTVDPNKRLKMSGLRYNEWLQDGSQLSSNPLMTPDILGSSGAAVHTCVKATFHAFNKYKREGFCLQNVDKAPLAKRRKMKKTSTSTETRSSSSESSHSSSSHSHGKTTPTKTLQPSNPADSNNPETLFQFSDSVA
Chain of Serine/threonine-protein kinase N2 (Q16513 whole entry): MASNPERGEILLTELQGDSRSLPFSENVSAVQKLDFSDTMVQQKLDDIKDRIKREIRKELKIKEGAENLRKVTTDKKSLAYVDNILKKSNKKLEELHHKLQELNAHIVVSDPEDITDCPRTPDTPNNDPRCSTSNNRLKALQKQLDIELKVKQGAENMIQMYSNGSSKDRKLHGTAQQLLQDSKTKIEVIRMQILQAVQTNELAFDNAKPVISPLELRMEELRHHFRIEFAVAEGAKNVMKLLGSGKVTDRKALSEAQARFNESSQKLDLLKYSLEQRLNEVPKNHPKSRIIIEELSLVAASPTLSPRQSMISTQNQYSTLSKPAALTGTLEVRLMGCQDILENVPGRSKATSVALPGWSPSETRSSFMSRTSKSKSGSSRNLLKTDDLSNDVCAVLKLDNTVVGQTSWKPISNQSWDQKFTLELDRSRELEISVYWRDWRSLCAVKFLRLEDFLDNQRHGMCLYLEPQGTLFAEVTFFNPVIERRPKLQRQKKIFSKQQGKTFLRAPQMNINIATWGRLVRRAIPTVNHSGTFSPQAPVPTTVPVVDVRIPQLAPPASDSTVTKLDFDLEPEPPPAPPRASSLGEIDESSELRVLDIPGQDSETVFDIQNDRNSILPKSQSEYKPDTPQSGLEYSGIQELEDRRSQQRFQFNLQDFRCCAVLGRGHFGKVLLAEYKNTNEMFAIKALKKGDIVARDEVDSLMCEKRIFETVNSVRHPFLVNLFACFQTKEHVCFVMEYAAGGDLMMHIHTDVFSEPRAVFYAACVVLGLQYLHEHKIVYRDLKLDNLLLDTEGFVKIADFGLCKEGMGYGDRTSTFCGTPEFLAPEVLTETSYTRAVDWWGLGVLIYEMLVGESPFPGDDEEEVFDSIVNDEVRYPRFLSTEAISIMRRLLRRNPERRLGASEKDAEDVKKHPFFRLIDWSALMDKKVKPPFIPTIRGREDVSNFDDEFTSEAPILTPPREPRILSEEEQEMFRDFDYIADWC
Chain of Protein-tyrosine kinase 2-beta (Q14289 whole entry): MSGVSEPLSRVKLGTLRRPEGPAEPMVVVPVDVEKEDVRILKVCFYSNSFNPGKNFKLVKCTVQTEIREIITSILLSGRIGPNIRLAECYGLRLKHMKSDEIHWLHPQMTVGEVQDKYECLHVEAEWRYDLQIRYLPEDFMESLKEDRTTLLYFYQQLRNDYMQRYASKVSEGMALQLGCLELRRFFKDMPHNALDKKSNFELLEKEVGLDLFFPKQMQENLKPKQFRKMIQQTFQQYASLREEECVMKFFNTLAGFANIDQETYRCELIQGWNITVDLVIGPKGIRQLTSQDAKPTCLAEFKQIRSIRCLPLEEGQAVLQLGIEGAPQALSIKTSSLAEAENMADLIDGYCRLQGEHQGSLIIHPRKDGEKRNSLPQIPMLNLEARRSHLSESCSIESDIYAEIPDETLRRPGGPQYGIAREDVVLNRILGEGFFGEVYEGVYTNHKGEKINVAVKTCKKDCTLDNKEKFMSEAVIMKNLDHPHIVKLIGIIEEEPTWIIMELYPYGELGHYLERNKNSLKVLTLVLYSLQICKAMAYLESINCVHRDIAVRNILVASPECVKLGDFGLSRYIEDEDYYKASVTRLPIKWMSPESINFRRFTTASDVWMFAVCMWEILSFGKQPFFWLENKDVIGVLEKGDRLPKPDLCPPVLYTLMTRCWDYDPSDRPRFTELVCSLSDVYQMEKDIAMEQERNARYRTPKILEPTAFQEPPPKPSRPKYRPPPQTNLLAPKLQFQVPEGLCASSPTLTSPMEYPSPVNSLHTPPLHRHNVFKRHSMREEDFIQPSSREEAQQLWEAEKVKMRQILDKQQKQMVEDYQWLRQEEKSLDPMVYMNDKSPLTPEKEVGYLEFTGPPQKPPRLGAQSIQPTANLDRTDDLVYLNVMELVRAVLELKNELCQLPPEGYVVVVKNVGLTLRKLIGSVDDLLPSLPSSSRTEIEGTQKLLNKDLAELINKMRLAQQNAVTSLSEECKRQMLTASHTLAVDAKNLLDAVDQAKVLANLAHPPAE
Chain of Ephrin type-A receptor 2 (P29317 whole entry): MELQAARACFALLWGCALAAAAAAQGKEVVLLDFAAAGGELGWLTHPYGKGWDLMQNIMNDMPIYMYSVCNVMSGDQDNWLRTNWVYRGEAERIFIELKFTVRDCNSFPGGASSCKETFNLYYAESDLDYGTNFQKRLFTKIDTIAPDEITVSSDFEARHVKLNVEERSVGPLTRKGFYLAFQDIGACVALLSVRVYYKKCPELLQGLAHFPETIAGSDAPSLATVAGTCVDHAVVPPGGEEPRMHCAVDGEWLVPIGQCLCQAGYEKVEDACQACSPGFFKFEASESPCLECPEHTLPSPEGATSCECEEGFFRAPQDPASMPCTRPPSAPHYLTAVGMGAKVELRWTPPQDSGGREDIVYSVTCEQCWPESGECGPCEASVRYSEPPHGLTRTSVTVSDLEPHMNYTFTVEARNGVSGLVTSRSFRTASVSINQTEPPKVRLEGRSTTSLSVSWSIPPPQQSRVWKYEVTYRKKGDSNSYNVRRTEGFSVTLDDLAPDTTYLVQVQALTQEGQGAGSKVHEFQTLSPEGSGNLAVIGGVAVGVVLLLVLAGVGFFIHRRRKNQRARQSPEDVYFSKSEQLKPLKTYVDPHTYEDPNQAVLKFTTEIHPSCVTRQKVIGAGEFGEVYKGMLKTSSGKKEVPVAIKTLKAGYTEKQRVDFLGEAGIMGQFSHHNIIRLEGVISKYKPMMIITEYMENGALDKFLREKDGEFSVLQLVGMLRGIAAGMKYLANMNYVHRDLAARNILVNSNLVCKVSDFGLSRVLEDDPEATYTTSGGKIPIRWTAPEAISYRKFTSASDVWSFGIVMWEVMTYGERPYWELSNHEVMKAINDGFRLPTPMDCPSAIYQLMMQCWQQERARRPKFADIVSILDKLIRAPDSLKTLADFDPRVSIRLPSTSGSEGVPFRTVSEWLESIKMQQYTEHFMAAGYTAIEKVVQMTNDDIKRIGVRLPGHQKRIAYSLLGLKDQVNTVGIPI
Chain of cAMP-dependent protein kinase catalytic subunit PRKX (P51817 whole entry): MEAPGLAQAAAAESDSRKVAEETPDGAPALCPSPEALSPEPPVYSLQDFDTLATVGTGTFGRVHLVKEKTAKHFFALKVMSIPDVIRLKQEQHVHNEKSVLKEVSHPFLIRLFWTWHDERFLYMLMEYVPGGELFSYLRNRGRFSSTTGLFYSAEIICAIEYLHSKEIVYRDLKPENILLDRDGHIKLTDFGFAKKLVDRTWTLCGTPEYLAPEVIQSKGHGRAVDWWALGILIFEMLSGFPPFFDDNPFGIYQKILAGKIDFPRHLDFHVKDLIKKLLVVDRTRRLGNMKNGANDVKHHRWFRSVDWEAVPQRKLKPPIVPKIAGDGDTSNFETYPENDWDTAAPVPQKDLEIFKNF

Compound: O=C(O)C1Nc2c(O)cc(Cl)c([N+](=O)[O-])c2C2C=CCC12 (centres undefined)
IC50 [1]: 37800 nM (active)
IC50 [2]: > 100000 nM (active)

Compound: Clc1ccc2nc(-c3ccc(Br)s3)cn2c1
EC50 (cells): > 67500 nM (inactive)

Compound: O=C(CCc1ccccc1)NNc1cc(N2CCCCC2)nc(N2CCCCC2)n1
IC50 [3]: 35700 nM (active)

Compound: Oc1ccc(N=Nc2c(O)ccc3ccccc23)cc1
AC50 [4]: 5610 nM (active)
AC50 [5]: 2380 nM (active)

Ki [6]: 316 nM (active)
Ki [7]: > 7940 nM (inactive)
Ki [8]: 126 nM (active)
Ki [9]: 1580 nM (active)
Ki [10]: 3.98 nM (active)
pKi [10]: 8.4
Ki [11]: 3160 nM (active)
Ki [12]: 158 nM (active)
Ki [13]: > 3160 nM (inactive)
Ki [14]: > 2510 nM (inactive)
Ki [15]: 501 nM (active)
Ki [16]: > 2000 nM (inactive)
Ki [17]: 1 nM (active)
Ki [18]: 15.8 nM (active)
Ki (Ephrin type-A receptor 2): > 3160 nM (inactive)
Ki [19]: 5.01 nM (active)
Ki [20]: 12.6 nM (active)
pKi [20]: 7.9
Compound: Cc1n[nH]c2ccc(-c3cncc(OCC(N)Cc4cccc(Cl)c4)c3)cc12 (centres undefined)
